Counter-ions that a name gives are not always drawn. Like-named read-outs stand apart in the source and are kept apart here.
Columns and labels:
[1] = in vitro; settings: PAMPA; for permeability level compared with metoprolol / permeation rate relative to the progesterone monomer: pH 6.8
Procedure: (§1) The present invention involves the following detection instruments: • Single-crystal X-ray diffractometer: Bruker P4, Mo target, \ω scan, 296.15K; • Fourier infrared spectrometer: PerkinElmer Frontier FT/IR Spectrometer, normal temperature, KBr pellets, wavelength of 4000 to 450 cm^−1; • Powder X-ray diffractometer: Rigaku D/max-25509 kw, CuKα radiation, graphite monochromator; • Differential scanning calorimetry analyzer: Mettler Toledo DSC 822e, heating rate of 10° C./min, nitrogen flow rate of 50 mL/min; • Dynamic vapour sorption analyzer: SMS DVS advantage, 25° C.; • Dissolution apparatus: Tianjin Tianda Tianfa Technology Co., Ltd. RC806D, stirring paddle method; • Drug permeation rate tester: Pion Inc μFlux™.
Since the pH of fasting intestinal fluid in a human body is 6.5 and the pH of blood is 7.4, in order to make the conditions under which the permeation rate was measured close to the environment of the human gastrointestinal tract, pH 6.8 phosphate buffer was selected as the medium in the experiment. 3 mg of progesterone monomers and cocrystals of progesterone equivalent to 3 mg of progesterone were accurately weighed, and respectively placed in a donor compartment that represents the gastrointestinal tract, and 20 ml of pH 6.8 phosphate buffer was accurately added. 20 ml of pH 7.4 ASB buffer was accurately added to a receptor compartment that represents blood. The two compartments were separated by a biomimetic membrane with an area of 1.54 cm^2. The biomimetic membrane was coated with 25 μl of simulated gastrointestinal liposomes for infiltration, which represents the cell membrane of the gastrointestinal tract. At the temperature of 37° C. and the stirring speed of 200 rpm, sampling was conducted for 4 h, with an interval of 60 s between each two sampling procedures. The drug concentration in the receptor compartment was measured with a fiber optic probe within the ultraviolet wavelength range of 250 to 350 nm. The artificial membrane permeation rate of the drug was calculated according to Formula 1 (J/Flux).
[formula] represents the rate of change of drug concentration in the receptor compartment per unit time (μg·mL^−1·min^−1); V is the volume of buffer in the receptor compartment (mL); A is the area of the biomimetic membrane (cm^2); and Ct is the initial concentration of the drug in the donor compartment (μg·mL^−1).
The level of drug permeability can be determined by comparing the permeability of the drug with that of metoprolol measured by the same method.

[2] = Determination of hygroscopicity by dynamic vapour sorption analysis; assay type: physicochemical; settings: 25° C.
Procedure: The nitrogen flow rate was 200 ml/min, and the relative humidity, varied in a stepped manner by a change of 10%, increased from 20% to 80%, and then dropped to 0%.

[3] = Determination of the dissolution rate (dissolution curves, stirring paddle method, HPLC); settings: for time at which the highest concentration was reached / highest value of concentration of progesterone on dissolution curve: 37±0.5° C.; for highest value of concentration of progesterone on dissolution curve: 50 to 100 rpm
Procedure: as §1
The two dissolution media are water and pH 1.2 hydrochloric acid solution, respectively. […] The content of progesterone at the wavelength of 241 nm was measured by the HPLC method, and the dissolution amount was calculated by the external standard method. Dissolution curves with time as the abscissa and the concentration of progesterone as the ordinate were respectively plotted, as shown in FIGS. 5 and 6.

[4] = test system: Female immature white rabbits; assay: Pharmacodynamic experiment of cocrystals of progesterone: rabbit body weight and uterine index; assay type: in vivo; settings: for Uterine index (weight of uterus / weight of rabbit): x ± s
Procedure: Female immature white rabbits were used and randomly divided into blank group, positive control group, low dose group, medium dose group and high dose group, with 10 rabbits in each group. The dose of progesterone that should be given to each rabbit is twice the clinical human dose of progesterone, and is calculated according to the rabbit's body weight. […] The intramuscular injections were performed for a consecutive 30 days. Weighing was performed on day 1 and day 30 respectively. A part of the uterine tissue 2 cm from the junction of the uterus and vagina in the direction of the ovary was cut and weighed. The uterine index was calculated by dividing the weight of the uterus by the weight of each rabbit.

[5] = pH 1.2 hydrochloric acid solution

Papp at 4 h, 150 µg/mL [1] [×10⁻⁶ cm/s]	time at which the highest concentration was reached [3, 5] [min]	highest value of concentration of progesterone on dissolution curve [3, 5] [µg/mL]	time at which the highest concentration was reached ([3]; water) [min]	highest value of concentration of progesterone on dissolution curve ([3]; water) [µg/mL]	permeability level compared with metoprolol [1]	solubility relative to the progesterone monomer [3] [times]	solubility relative to the progesterone monomer ([3]; pH 1.2) [times]	effective permeability (Pe) [1] [×10⁻⁶ cm/s]	permeation rate (J, Flux) [1] [μg·min^−1·cm^−2]	permeation rate relative to the progesterone monomer [1] [times]	Compound	also measured
120	–	–	–	–	–	–	–	–	–	–	COCCc1ccc(OCC(O)CNC(C)C)cc1 (stereo not shown) [metoprolol tartrate, reference compound]	–
1110	120	7.87	120	7.84	high permeability	–	–	–	–	–	CC(=O)[C@H]1CC[C@H]2[C@@H]3CCC4=CC(=O)CC[C@]4(C)[C@H]3CC[C@]12C [progesterone, pregn-4-ene-3,20-dione]	hygroscopicity ([2]; dynamic vapour sorption): non-hygroscopic; change in relative mass (dynamic vapour sorption) ([2]; relative humidity 20% to 80% then to 0% in 10% steps): less than 0.2%; permeation rate (J, Flux) ([1]; 4 h, 150 µg/mL): 0.32 μg·min^−1·cm^−2
–	30	10.4	90	9.90	high permeability	1.3	1.3	1460	0.28	0.9	CC(=O)[C@H]1CC[C@H]2[C@@H]3CCC4=CC(=O)CC[C@]4(C)[C@H]3CC[C@]12C.O=C(O)c1cccc([N+](=O)[O-])c1C(=O)O [progesterone-3-nitrophthalic acid cocrystal]	–
–	120	8.77	60	9.06	high permeability	1.2	1.1	887	0.62	1.9	CC(=O)[C@H]1CC[C@H]2[C@@H]3CCC4=CC(=O)CC[C@]4(C)[C@H]3CC[C@]12C.O=Cc1ccc(B(O)O)cc1 [progesterone-4-formylbenzeneboronic acid cocrystal]	–
–	–	–	–	–	–	–	–	–	–	–	progesterone-isophthalic acid cocrystal	Uterine index (weight of uterus / weight of rabbit) ([4]; 3.5 mg·kg^−1 intramuscular for 30 consecutive days, low dose group): 0.025 ± 0.009%; Uterine index (weight of uterus / weight of rabbit) ([4]; 7 mg·kg^−1 intramuscular for 30 consecutive days, medium dose group): 0.029 ± 0.009 %; Uterine index (weight of uterus / weight of rabbit) ([4]; 14 mg·kg^−1 intramuscular for 30 consecutive days (high dose group / positive control group)): 0.035 ± 0.008%; change of uterine index of rabbits as the dose increased ([4]; 3.5, 7 and 14 mg·kg^−1 intramuscular, 30 days): increasing trend; statistical difference in uterine index versus positive control group ([4]; high dose group, 14 mg·kg^−1): no significant difference; statistical difference in uterine index versus positive control group ([4]; low dose group, 3.5 mg·kg^−1): significant differences; statistical difference in uterine index versus positive control group ([4]; medium dose group, 7 mg·kg^−1): no significant difference

Source: US11866459B2, “Cocrystal of progesterone and preparation method and use thereof” (NATIONAL INSTITUTES FOR FOOD AND DRUG CONTROL, priority 2020, dated 2024)
